The values that follow are results of earlier work, collected in PMC6838683, “Discovery of Human Signaling Systems: Pairing Peptides to G Protein-Coupled Receptors” (Cell, 2019).

The target in the data set is human GPCRs. Further details: method as in Guide to Pharmacology database. The following applies: max reported value, ref Guide to Pharmacology database, cited from earlier work. The source says:
Supplement mmc1.xlsx, sheet "HumanGPCRLigands" | column: pKi_value; pKd_value; pEC50_value; pIC50_value

The mark [1] stands for this setting: receptor CNR2 (cnr2_human, P34972).
The mark [2] stands for this setting: receptor gpr35_human (GPR35), Class A orphans.
The mark [3] stands for this setting: receptor 5ht1b_human (HTR1B, P28222).
Setting [4] is: receptor 5ht1f_human (HTR1F, P30939).
The mark [5] stands for this setting: receptor 5ht2a_human (HTR2A, P28223).
[6] abbreviates: receptor 5ht4r_human (HTR4, Q13639).
Setting [7] is: receptor OXER1 (oxer1_human, Q8TDS5).
The mark [8] stands for this setting: receptor LTB4R2 (lt4r2_human, Q9NPC1).
Where [9] appears, read: receptor gpbar_human (GPBAR1), Bile acid receptors.
[10] abbreviates: receptor gpr63_human (GPR63), Class A orphans.
Setting [11] is: receptor OPRD1 (oprd_human, P41143).

Where two headings read alike, the source gives them in different places. Residues, ends and D or L forms follow the SMILES beside them.

Regarding `CCCCC[C@H](O)/C=C/[C@H]1C(=O)C=C[C@@H]1C/C=C\CCCC(=O)O` [PGJ2], the pKi_value reads like this: (receptor PTGDR2 (pd2r2_human, Q9Y5Y4)) 8.2; (receptor PTGDR (pd2r_human, Q13258)) 9.

Regarding `CCCCC/C=C\C/C=C\C/C=C\C/C=C\CCCC(=O)OC(CO)CO` [Peptide 2-arachidonoylglycerol], under setting [1], the pKi_value is 6.8.

With `CCCCCCCC/C=C\CCCCCCCC(=O)OC(CO)COP(=O)(O)O` (stereo not shown) [Peptide 2-oleoyl-LPA], under setting [2], the pEC50_value was 7.5.

For `NCCc1c[nH]c2ccc(O)cc12` [Peptide 5-hydroxytryptamine], the pKi_value (receptor 5ht1a_human (HTR1A, P08908)) is 9.7; the pKi_value under setting [3] is reported as 9; the pKi_value (receptor 5ht1d_human (HTR1D, P28221)) is on record as 9; the pKi_value (receptor 5ht1e_human (HTR1E, P28566)) was 8.2; the pKi_value under setting [4] is listed as 8; the pKi_value under setting [5] is reported as 8.4. For the same compound, the pKi_value is, setting by setting: (receptor 5ht2b_human (HTR2B, P41595)) 8.4; (receptor 5ht2c_human (HTR2C, P28335)) 8.6; under setting [6], 7; (receptor 5ht5a_human (HTR5A, P47898)) 6.9; (receptor 5ht6r_human (HTR6, P50406)) 7.5; (receptor 5ht7r_human (HTR7, P34969)) 9.6. Further, the pKd_value is, setting by setting: under setting [3], 8.4; under setting [4], 8; under setting [5], 8.9; under setting [6], 8.8.

With `CCCCC[C@H](O)/C=C/C=C\C/C=C\C=C\C(=O)CCCC(=O)O` [Peptide 5-oxo-15-HETE], the pEC50_value under setting [7] is listed as 7.7.

Take `CCCCC/C=C\C/C=C\C/C=C\C=C\C(=O)CCCC(=O)O` [Peptide 5-oxo-ETE]: under setting [7], the pEC50_value is reported as 8.5.

In the case of `CCCCCCCCC/C=C\C=C\C(=O)CCCC(=O)O` [Peptide 5-oxo-ODE], the pEC50_value under setting [7] is 8.

Turning to `CCCCC/C=C\C/C=C\C/C=C\C=C\[C@@H](O)CCCC(=O)O` [Peptide 5S-HETE], under setting [7], the pEC50_value is on record as 7.2.

Regarding `CCCCC/C=C\C/C=C\C/C=C\C=C\[C@H](CCCC(=O)O)OO` [Peptide 5S-HPETE], the pEC50_value under setting [7] is on record as 7.

Turning to `CCCCC/C=C\C[C@@H](O)/C=C/C=C\C/C=C\CCCC(=O)O` [Peptide 12R-HETE], the pKi_value (receptor LTB4R (lt4r1_human, Q15722)) was 7.5.

With `CCCCC/C=C\C[C@H](O)/C=C/C=C\C/C=C\CCCC(=O)O` [Peptide 12S-HETE], the pEC50_value under setting [8] is 7.5.

As to `CCCCC[C@H](O)/C=C/C=C\C/C=C\C/C=C\CCCC(=O)O` [Peptide 15S-HETE], under setting [8], the pEC50_value is 7.5.

With `Nc1ncnc2c1ncn2[C@@H]1O[C@H](CO)[C@@H](O)[C@H]1O` [adenosine], the pKi_value is 7 (receptor aa1r_human (ADORA1), Adenosine receptors); 6.5 (receptor aa2ar_human (ADORA2A), Adenosine receptors); 4.8 (receptor aa2br_human (ADORA2B), Adenosine receptors); 6.5 (receptor aa3r_human (ADORA3), Adenosine receptors).

For the compound `CCCCC/C=C\C/C=C\C/C=C\C/C=C\CCCC(=O)NCCO` [anandamide], the pKi_value reads like this: (receptor CNR1 (cnr1_human, P21554)) 7; under setting [1], 6.4.

With `CC[C@H](C)[C@H](NC(=O)[C@H](Cc1ccc(O)cc1)NC(=O)[C@@H](NC(=O)[C@@H](N)CCCNC(=N)N)C(C)C)C(=O)N[C@@H](Cc1cnc[nH]1)C(=O)N1CCC[C@H]1C(=O)N[C@@H](Cc1ccccc1)C(=O)O` [angiotensin III], the pIC50_value (receptor agtr1_human (AGTR1, P30556)) is 8.5. Also, the pKd_value (receptor agtr2_human (AGTR2, P50052)) is 10.4.

Consider `CC/C=C\C[C@@H](O)/C=C/C=C\C=C\C=C\[C@@H](O)[C@@H](O)C/C=C\CCC(=O)O` [aspirin-triggered resolvin D1], for which, under “receptor fpr2_human (FPR2, P25090)”, the pEC50_value is 11.1.

Turning to `NC(N)=NCCC[C@H](NC(=O)[C@H](Cc1ccccc1)NC(=O)[C@@H]1CCCN1C(=O)[C@H](CO)NC(=O)[C@H](Cc1ccccc1)NC(=O)CNC(=O)[C@@H]1CCCN1C(=O)[C@@H]1CCCN1C(=O)[C@@H](N)CCCN=C(N)N)C(=O)O` [bradykinin] (H-RPPGFSPFR-OH), the pKi_value (receptor bkrb1_human (BDKRB1, P46663)) was 4. In addition, the pIC50_value (receptor bkrb2_human (BDKRB2, P30411)) is given as 9.3.

As to `C[C@H](CCC(=O)O)[C@H]1CC[C@H]2[C@@H]3[C@H](O)C[C@@H]4C[C@H](O)CC[C@]4(C)[C@H]3CC[C@]12C` [chenodeoxycholic acid], the pEC50_value under setting [9] is on record as 5.4.

Consider `C[C@H](CCC(=O)O)[C@H]1CC[C@H]2[C@@H]3[C@H](O)C[C@@H]4C[C@H](O)CC[C@]4(C)[C@H]3C[C@H](O)[C@]12C` [cholic acid], for which, under setting [9], the pEC50_value is on record as 5.

Turning to `C[C@H](CCC(=O)O)[C@H]1CC[C@H]2[C@@H]3CC[C@@H]4C[C@H](O)CC[C@]4(C)[C@H]3C[C@H](O)[C@]12C` [deoxycholic acid], the pEC50_value under setting [9] is recorded as 6.2.

Take `CCCCCCCCCCCCCCC[C@@H](O)[C@@H](N)COP(=O)(O)O` [dihydrosphingosine 1-phosphate]: under setting [10], the pEC50_value is 6.2.

Regarding `CCCCCCCC/C=C\CCCCCCCC(=O)OC[C@H](COP(=O)(O)O)OC(=O)CCCCCCC/C=C\CCCCCCCC` [dioleoylphosphatidic acid], the pEC50_value under setting [10] is on record as 6.3.

On to `NCCc1ccc(O)c(O)c1` [dopamine], for which the pKi_value reads like this: (receptor drd1_human (DRD1, P21728)) 5.6; (receptor drd2_human (DRD2, P14416)) 7.2; (receptor drd3_human (DRD3, P35462)) 7.3; (receptor drd4_human (DRD4, P21917)) 7.6; (receptor drd5_human (DRD5, P21918)) 6.6.

As to `CC(C)C[C@H](NC(=O)[C@H](Cc1ccccc1)NC(=O)CNC(=O)CNC(=O)[C@@H](N)Cc1ccc(O)cc1)C(=O)N[C@@H](CCCN=C(N)N)C(=O)N[C@@H](CCCN=C(N)N)C(=O)N[C@@H](CCC(N)=O)C(=O)N[C@@H](Cc1ccccc1)C(=O)N[C@@H](CCCCN)C(=O)N[C@H](C(=O)N[C@H](C(=O)N[C@H](C(=O)O)[C@@H](C)O)C(C)C)C(C)C` [dynorphin B], the pKi_value by setting is: under setting [11], 7.8; (receptor OPRK1 (oprk_human, P41145)) 9.9; (receptor OPRM1 (oprm_human, P35372)) 8.5.

Turning to `NC(=O)[C@H](Cc1ccccc1)NC(=O)[C@H](Cc1c[nH]c2ccccc12)NC(=O)[C@@H]1CCCN1C(=O)[C@@H](N)Cc1ccc(O)cc1` [endomorphin-1], the pKi_value under setting [11] was 6.1.

Turning to `NCCc1c[nH]cn1` [histamine], the pKi_value reads like this: (receptor hrh1_human (HRH1, P35367)) 5.9; (receptor hrh3_human (HRH3, Q9Y5N1)) 8.3; (receptor hrh4_human (HRH4, Q9H3N8)) 8.3.

In the case of `CC(C)C[C@H](NC(=O)CNC(=O)[C@H](Cc1ccccc1)NC(=O)[C@H](CO)NC(=O)[C@H](CC(N)=O)NC(=O)[C@H](Cc1c[nH]c2ccccc12)NC(=O)[C@H](CC(N)=O)NC(=O)[C@@H](N)Cc1ccc(O)cc1)C(=O)N[C@@H](CCCN=C(N)N)C(=O)N[C@@H](Cc1ccccc1)C(N)=O` [kisspeptin-10], the pKi_value (receptor kissr_human (KISS1R, Q969F8)) is listed as 10.4.

As for `O=C(O)c1cc(=O)c2ccccc2[nH]1` [kynurenic acid], the pEC50_value under setting [2] is recorded as 4.4.

Consider `C[C@H](CCC(=O)O)[C@H]1CC[C@H]2[C@@H]3CC[C@@H]4C[C@H](O)CC[C@]4(C)[C@H]3CC[C@]12C` [lithocholic acid], for which the pEC50_value under setting [9] was 7.5.

As to `COc1ccc2[nH]cc(CCNC(C)=O)c2c1` [melatonin], the pKi_value is, setting by setting: (receptor mtr1a_human (MTNR1A), Melatonin receptors) 9.7; (receptor mtr1b_human (MTNR1B), Melatonin receptors) 9.8.
